The values that follow are results of earlier work, collected in patent US8992954B2, “Compositions comprising a derivative of 5-aminolevulinic acid” (Photocure ASA, priority 2010, dated 2015).

The test system of this series is skin. The note with it: Eucerin cream base with 5%, 10% and 20% by weight of ALA; occlusion 4 hours; visible light.

With `NCC(=O)CCC(=O)O` [Composition 5-ALA, 5-amino-4-oxo-pentanoic acid], the Complaints during illumination result was “All volunteers complained about burning and itching”; the Pigmentary response entry is “pigmentary response was observed”; the “Skin reactions after the illumination” value is “erythema and edema appeared”.
